From patent US20190184064A1, “Composition for Soft Tissue Augmentation Providing Protection from Infection” (priority 2015, published 2019) come the findings set out here.

Assay [1] concerns Pseudomonas aeruginosa (PAO1). Description: Solution exposure of antimicrobial hyaluronic acid hydrogels to living cultures (PAO1). It counts as cell-based. To be noted: 20 μl early phase culture in 980 μl formulation. How it is done:
(§1) By way of Examples, the following evaluations were done to assess the performance of the antimicrobial hyaluronic acid gels. Solution exposure of the antimicrobial hyaluronic acid hydrogels immersed in early phase concentrations of 2 test microorganisms were conducted. Additionally, the physical properties of the hydrogels were assessed to determine their shear/thixotropic properties.
(§2) In this study, two strains of bacteria, namely Pseudomonas aeruginosa (PAO1) and Stapylococcus aureus (SA 113) were evaluated for total kill of each of the strains after 4 and 24 hours of exposure to the taurolidine-HA formulation. 20 μl of early phase culture of each strain was placed in 980 μl of each Hyaluronic Acid formulation. Samples of remaining bacteria concentrations were determined for the samples after 4 and 24 hours of exposure. Two controls (with and without HA), and HA gels with 3 different drug concentrations were evaluated. They were also evaluated against a known antimicrobial, gentamicin.

Assay [2] deals with Stapylococcus aureus (SA 113). Nature of the assay: Solution exposure of antimicrobial hyaluronic acid hydrogels to living cultures (SA 113). To be noted: 20 μl early phase culture in 980 μl formulation. Type of assay: cell-based. The procedure: as §1, §2

For the substance gentamicin, the “PA01 (4 hr) remaining bacteria concentration” value in assay [1] (4 hours of exposure) was 0.00E+00. The “PA01 (24 hr) remaining bacteria concentration” value in assay [1] (24 hours of exposure) is given as 0.00E+00. Further, the “SA113 (4 hr) remaining bacteria concentration” value in assay [2] (4 hours of exposure) came out at 3.77E+02. Further, the “SA113 (24 hr) remaining bacteria concentration” value in assay [2] (24 hours of exposure) is 8.33E+00.
